Data from patent US10039806B2, “Methods and compositions for treating antiprogestin-resistant cancers” (Fundación Sales, priority 2011, dated 2018).

Tests used:
[1] = tested on: C4-HI or C4-HIR epithelial cells with carcinoma-associated fibroblasts; experiment: (3H)-thymidine uptake, co-cultures with carcinoma-associated fibroblasts; format: cell-based, mouse; conditions: own or other tumor's fibroblasts
Protocol: Trypsinized cells were resuspended and equal amounts of epithelial cells and carcinoma-associated fibroblasts were seeded with 10% FCS that was replaced after attachment by 1% steroid-stripped FCS. […] The same amount of epithelial cells or carcinoma-associated fibroblasts or double the amount of purified cells was used for comparison.
(§1) (3H)-thymidine-uptake was used as an indirect method to evaluate cell proliferation. In brief, cells were seeded into 96-well microplates. After attachment (24 h), the cells were incubated for 24 h with 1% steroid-stripped FCS and then for 48 h with the experimental solutions to be tested in 1% chFCS. Fifty percent of the medium was replaced with fresh medium every 24 h. The cells were incubated with 0.4 μCi of 3H-thymidine (specific activity: 20 Ci/mmol) for 24 h, trypsinized, and harvested in a cell harvester. In experiments in which 5azadC was used, the experiments were carried out using proliferating cells (presence of 10% FCS) to guarantee the effect of the demethylating agent. Three different experiments were made using octuplicates, and the means and standard deviations of one representative experiment of the other three are shown. The results are expressed as the proliferation index (cpm 30 experimental group/cpm control; mean±SEM).

C4-2-HI cells = experiment: (3H)-thymidine uptake, primary cultures of purified epithelial cells; format: cell-based, mouse; conditions: 48 h, 1% chFCS
Protocol: (§2) Epithelial cells and carcinoma-associated fibroblasts were separated by differential sedimentation and plated with 10% FCS. Carcinoma-associated fibroblasts were allowed to attach for 0.5 h and the epithelial cells for 24-48 h. The medium was replaced by fresh medium with 10% FCS; thereafter, it was changed every 2-3 days.
as §1

C4-HIR cells = experiment: as above; format: cell-based, mouse; conditions: 48 h, 1% chFCS; P<0.001
Protocol: as §2, §1

C4-HI cells = experiment: as above; format: cell-based, mouse; conditions: 48 h, 1% chFCS; P<0.001
Protocol: as §2, §1

T47D cells = conditions: 5% FCS; cited from earlier work
C4-2-HI and 59-HI cells = experiment: (3H)-thymidine incorporation with 5azadC and RU-486 in 10% FCS; format: cell-based, mouse; conditions: 5 μM 5azadC, 100 nM RU-486; P<0.001
Protocol: as §1, with “The cells were incubated with 0.4 μCi of 3H-thymidine (specific activity: 20 Ci/mmol) for 24 h, trypsinized, and harvested in a cell harvester.” left out, “shown.” for “shown. The results are expressed as the proliferation index (cpm 30 experimental group/cpm control; mean±SEM).”

GR in C4-2-HI cells = experiment: GR expression in vitro (immunofluorescence); format: cell-based, mouse; conditions: 5×10^-7 M, 96 h
Protocol: Frozen sections or cells grown in chamber slides, fixed in 70% ethanol for 1 h, were incubated with antibodies recognizing Dnmt1, Dnmt3a, Dnmt3b, PRA (Ab-7), RPB (Ab-6), or GR, in blocking buffer at a 1:200 dilution overnight at 4° C. They were then incubated with a FITC conjugated anti-rabbit (FI-1000, Vector Laboratories Burlingame, Calif.; 1:100 dilution) secondary antibody for 1 h at room temperature. Nuclei were stained with propidium iodide (PI, Sigma). The slides were mounted using Vectashield (Vector Laboratories). Stained cells were analyzed using a Nikon Eclipse E800 Laser Confocal Microscope and EZ-C1 2.20 software. Cell staining was quantified using Image Quant software.

[2] = tested on: PRA and PRB in C4-2-HI and 59-HI cells; experiment: PR isoform expression after 5azadC in vitro (immunofluorescence, western blot); format: cell-based, mouse; conditions: 96 h
Protocol: C4-2-HI and 59-HI epithelial cells from primary cell cultures were allowed to attach for 24 h. The medium was replaced with fresh medium with 10% FCS, and 5azadC was added for 96 h. The medium was refreshed daily. Cells were processed for western blot or immunofluorescence to evaluate PR expression.
Cytosolic or nuclear extracts were processed for western blots as described previously. The cells were lysed using Mammalian Protein Extraction Reagent (Pierce, Rockford, Ill.) according the manufacturer's instructions. […] The band intensities from 3 to 4 different tumor samples indifferent western blots were quantified using Image Quant software.
Frozen sections or cells grown in chamber slides, fixed in 70% ethanol for 1 h, were incubated with antibodies recognizing Dnmt1, Dnmt3a, Dnmt3b, PRA (Ab-7), RPB (Ab-6), or GR, in blocking buffer at a 1:200 dilution overnight at 4° C. […] Stained cells were analyzed using a Nikon Eclipse E800 Laser Confocal Microscope and EZ-C1 2.20 software. Cell staining was quantified using Image Quant software.

59-HI tumors = experiment: Constitutive-resistant tumor transplanted s.c. in BALB/c mice; format: in vivo, mouse
Protocol: (§3) C4-2-HI, 59-HI, and C4-HIR tumors were transplanted s.c nearby the mammary gland 4th in syngenic mice, and measured every 2 days (length and width). Treatments were initiated when the tumors were palpable. […] The mice were inoculated intraperitoneally (i.p.) with 0.75 mg/kg 5azadC (for C4-2-HI and C4-HIR tumors) or 1 mg/kg 5azadC (for 59-HI tumors) every other day. All the experiments were repeated twice using five mice per group. The animals were euthanized after 13 days of treatment, and tumor samples were removed and frozen at −80° C. or fixed in 10% formaldehyde.
(§4) Cytosolic or nuclear extracts were processed for western blots as described previously. The cells were lysed using Mammalian Protein Extraction Reagent (Pierce, Rockford, Ill.) according the manufacturer's instructions. The western blot membranes were incubated with antibodies against PR (C-19, Santa Cruz Biotech, CA, or Ab-7, Neomarkers, Lab Vision Corp, Fremont, Calif.), PRB (Ab-6, Neomarkers), ERKs (SC-94, Santa Cruz Biotech), E-Cad (610182, BD), Actin (1-19, Santa Cruz Biotech), DnmtI, Dnmt3a and Dnmt3b (H-300, H-295, and H-230, respectively, Santa Cruz Biotech), RARβ (SC-14028, Santa Cruz Biotech), PTEN Ab32199, Abcam), p16 (SC-1207, Santa Cruz Biotech), Rb (SC-50, Santa Cruz Biotech), or glucocorticoid receptors (GRs) (SC-1004, Santa Cruz Biotech) overnight at 4° C., at a concentration of 2 μg/ml in PBST (0.8% NaCl, 0.02% KCl, 0.144% Na2PO4, 0.024% KH2PO4, pH 7.4, 0.1% Tween 20). The band intensities from 3 to 4 different tumor samples indifferent western blots were quantified using Image Quant software.
(§5) Sections of formalin-fixed, paraffin-embedded tissue were processed as previously described and stained with the PRA-specific antibody (C-19) using the avidin-biotin-peroxidase complex technique (Vectastain Elite ABC kit; Vector), as described previously.
(§6) H&E stained sections of livers, spleens, and kidneys from the 5azadC-treated mice (1 mg/kg or 0.75 mg/kg/every other day; n=5) were studied by an expert mouse pathologist. The percentage of tumor stoma versus tumor parenchyma was quantified with the ImageJ software in treated and untreated tumors. The stromal area in relation to the total tumor area was calculated in five representative fields of each sample, using 400× magnification, in three different tumor samples of each group, and the mean±SEM was calculated. Mitotic and apoptotic indices were counted in 10 and 15 high-power fields (HPFs), respectively, of each section, using 1000× magnification, and expressed as the mean±SEM of the percentage of the ratios between the total number of events (mitosis or apoptosis) and the total cell number per HPF. Mitotic figures were identified morphologically by the condensed “hairy” aspect of the chromosomes. Morphological identification of apoptosis was performed according to criteria previously reported, which correlated with the deoxynucleotidyl transferase mediated dUTP-biotin nick end labeling (TUNEL) method.
as §3, with “C4-2-HI” for “C4-2-HI, 59-HI,”, “59-HI” for “C4-HIR”, “every other day” for “(for C4-2-HI”, “s.c. with” for “C4-HIR tumors) or”, “TSA” for “5azadC (for 59-HI tumors)”, “−80 C” for “−80° C.”

C4-2-HI tumors = experiment: as above; format: in vivo, mouse
Protocol: as §3, §4, §5, §6
as §3, with “C4-2-HI” for “C4-2-HI, 59-HI,”, “59-HI” for “C4-HIR”, “every other day” for “(for C4-2-HI”, “s.c. with” for “C4-HIR tumors) or”, “TSA” for “5azadC (for 59-HI tumors)”, “−80 C” for “−80° C.”

[3] = Histology of livers, spleens and kidneys of 5azadC-treated mice; format: in vivo, mouse; conditions: 0.75 and 1 mg/kg every other day
Protocol: as §6

Row | Structure (SMILES) | co-culture cell proliferation [1] | cell proliferation (proliferation index) (C4-2-HI cells) | cell proliferation (proliferation index) (C4-HIR cells) | cell proliferation (proliferation index) (C4-HI cells) | effects on T47D cells (T47D cells) | cell proliferation, (3H)-thymidine incorporation (C4-2-HI and 59-HI cells) | expression of GR (immunofluorescence) (GR in C4-2-HI cells) | PRA expression ([2]; 5×10^-7 M (C4-2-HI), 5×10^-6 M (59-HI), P<0.001) | PRB staining (Ab-6 antibody) [2] | PRA staining (immunohistochemistry) (59-HI tumors; 5azadC-treated tumors) | PRA expression (western blots) (59-HI tumors; P<0.01) | tumor growth (59-HI tumors; RU-486 12 mg/kg/day s.c., 5azadC 1 mg/kg every other day i.p., 13 days) | PRB level (59-HI tumors; not shown) | PRA staining (immunohistochemistry) (C4-2-HI tumors; 5azadC-treated vs control tumors) | PRA expression (western blots) (C4-2-HI tumors; P<0.01) | tumor growth (C4-2-HI tumors; RU-486 12 mg/kg/day s.c., 5azadC 0.75 mg/kg every other day i.p., 13 days) | PRB level (C4-2-HI tumors; not shown) | expression of GR (western blots) (C4-2-HI tumors; tumors from 5azadC-treated mice) | Histological evaluation of liver, spleen, and kidney [3]
1 | CC(=O)O[C@]1(C(C)=O)CC[C@H]2[C@@H]3C[C@H](C)C4=CC(=O)CC[C@]4(C)[C@H]3CC[C@@]21C [MPA, medroxyprogesterone acetate] | stimulated | no differences were observed | proliferative effect | strong proliferative effect | inhibitory effects | – | – | – | – | – | – | – | – | – | – | – | – | – | –
2 | Nc1ncn([C@H]2C[C@H](O)[C@@H](CO)O2)c(=O)n1 [5azadC, 5-aza-2′-deoxycytidine] | – | – | – | – | – | did not alter cell proliferation | decreased | increase in PRA expression | no significant changes | only cytoplasmic and perinuclear PRA staining | increase in PRA expression | no significant differences | not significantly modified | increase in nuclear and cytoplasmic PRA staining | increase in PRA expression | no significant differences | not significantly modified | decreased | no signs of toxicity
